Tested on: mutant Huntington (HTT) protein
Assay: HTT Mutant HTRF iPSC assay (mHTT protein lowering)
Format: cell-based
Conditions: human iPSC derived from a HTT patient with a poly-Q49 mutation

Row | Compound | IC50 [µM]
1 | Cc1cn2cc(NC(=O)c3cc4ccc(C5=CC6CCC(C5)N6)nc4s3)cc(F)c2n1 (stereo not shown) [Compound 83, 6-(8-azabicyclo[3.2.1]oct-2-en-3-yl)-N-(8-fluoro-2-methylimidazo[1,2-a]pyridin-6-yl)thieno[2,3-b]pyridine-2-carboxamide] | < 0.1
2 | Cc1cn2cc(NC(=O)c3cc4ccc(N5CC(N(C)C)C5)nc4s3)cc(F)c2n1 [Compound 204, 6-(3-(dimethylamino)azetidin-1-yl)-N-(8-fluoro-2-methylimidazo[1,2-a]pyridin-6-yl)thieno[2,3-b]pyridine-2-carboxamide] | < 0.1
3 | Cc1cn2cc(NC(=O)c3cc4ccc(N5CCC(C6(N)CC6)C5)nc4s3)cc(F)c2n1 (stereo not shown) [Compound 78, 6-(3-(1-aminocyclopropyl)pyrrolidin-1-yl)-N-(8-fluoro-2-methylimidazo[1,2-a]pyridin-6-yl)thieno[2,3-b]pyridine-2-carboxamide] | < 0.1
4 | Cc1cn2cc(NC(=O)c3nc4ccc(N5CC[C@H](N(C)C)C5)nc4s3)cc(F)c2n1 [Compound 93, (S)-5-(3-(dimethylamino)pyrrolidin-1-yl)-N-(8-fluoro-2-methylimidazo[1,2-a]pyridin-6-yl)thiazolo[5,4-b]pyridine-2-carboxamide] | < 0.1
5 | Cc1cn2cc(NC(=O)c3cc4ccc(N5CC[C@]6(CCCN6C)C5)nc4s3)nc(C(F)F)c2n1 (single isomer, unassigned) [Compound 255] | < 0.1
6 | Cc1cn2cc(NC(=O)c3cc4ccc(N5CC[C@@H](N(C)C)C5)nc4s3)ncc2n1 [Compound 6, 6-[(3R)-3-(dimethylamino)pyrrolidin-1-yl]-N-(2-methylimidazo[1,2-a]pyrazin-6-yl)thieno[2,3-b]pyridine-2-carboxamide] | 0.1 to 1
7 | COc1cc(NC(=O)c2cc3nc(N4CCC5(CCCN5C)C4)ccc3o2)cn2cc(C)nc12 (single isomer, unassigned) [Compound 174] | < 0.1
8 | Cc1cn2cc(NC(=O)c3nc4ccc(N5C[C@@H]6CCN[C@@H]6C5)nc4s3)cc(F)c2n1 [Compound 110, N-(8-fluoro-2-methylimidazo[1,2-a]pyridin-6-yl)-5-((3aS,6aS)-hexahydropyrrolo[3,4-b]pyrrol-5(1H)-yl)thiazolo[5,4-b]pyridine-2-carboxamide] | < 0.1
9 | COc1cc2nn(C)cc2cc1NC(=O)c1cc2ccc(N3CCC4(CN(C)C4)C3)nc2s1 [Compound 221, N-(6-methoxy-2-methyl-2H-indazol-5-yl)-6-(2-methyl-2,6-diazaspiro[3.4]octan-6-yl)thieno[2,3-b]pyridine-2-carboxamide] | < 0.1
10 | Cc1cn2cc(NC(=O)c3cc4ccc(N5CCNC6(CC6)C5)nc4s3)nc(C)c2n1 [Compound 193, N-(2,8-dimethylimidazo[1,2-a]pyrazin-6-yl)-6-(4,7-diazaspiro[2.5]octan-7-yl)thieno[2,3-b]pyridine-2-carboxamide] | < 0.1
11 | Cc1cn2cc(NC(=O)c3cc4ccc(N5CC(N(C)C)C(C)(C)C5)nc4s3)cc(F)c2n1 (stereo not shown) [Compound 203, 6-(4-(dimethylamino)-3,3-dimethylpyrrolidin-1-yl)-N-(8-fluoro-2-methylimidazo[1,2-a]pyridin-6-yl)thieno[2,3-b]pyridine-2-carboxamide] | < 0.1
12 | Cc1cn2nc(NC(=O)c3cc4ccc(N5CC[C@@H](N(C)C)C5)nc4s3)ccc2n1 [Compound 53, (R)-6-(3-(dimethylamino)pyrrolidin-1-yl)-N-(2-methylimidazo[1,2-b]pyridazin-6-yl)thieno[2,3-b]pyridine-2-carboxamide] | 1 to 9
13 | Cc1cn2cc(NC(=O)c3cc4ccc(NC5CCC6CN(C)CC65)nc4s3)ccc2n1 (stereo not shown) [Compound 13, N-(2-methylimidazo[1,2-a]pyridin-6-yl)-6-((2-methyloctahydrocyclopenta[c]pyrrol-4-yl)amino)thieno[2,3-b]pyridine-2-carboxamide] | 1 to 9
14 | Cc1cn2cc(NC(=O)c3nc4ccc(N5CCC(N6CCC6)C5)nc4s3)cc(F)c2n1 (single isomer, unassigned) [Compound 101] | < 0.1
15 | COc1cc2nn(C)cc2cc1NC(=O)c1cc2ccc(N3C[C@@H]4CN(C)C[C@@H]43)nc2s1 [Compound 216, N-(6-methoxy-2-methyl-2H-indazol-5-yl)-6-((1S,5R)-3-methyl-3,6-diazabicyclo[3.2.0]heptan-6-yl)thieno[2,3-b]pyridine-2-carboxamide] | < 0.1
16 | Cc1cn2cc(NC(=O)c3cc4ncc(C5=CCCC(N)C5)nc4s3)cc(F)c2n1 (racemic) [Compound 143, 3-(5-aminocyclohex-1-en-1-yl)-N-(8-fluoro-2-methylimidazo[1,2-a]pyridin-6-yl)thieno[2,3-b]pyrazine-6-carboxamide] | 0.1 to 1
17 | COc1cc2nc(C)cn2cc1NC(=O)c1cc2ccc(N3CC[C@]4(CCCN4C)C3)nc2s1 (single isomer, unassigned) [Compound 251] | 0.1 to 1

Row | Compound | IC50 [µM]
18 | COc1nc(NC(=O)c2cc3ccc(N4CCC(N(C)C)C4)nc3s2)cn2cc(C)nc12 (stereo not shown) [Compound 191, 6-(3-(dimethylamino)pyrrolidin-1-yl)-N-(8-methoxy-2-methylimidazo[1,2-a]pyrazin-6-yl)thieno[2,3-b]pyridine-2-carboxamide] | < 0.1
19 | Cc1cn2cc(NC(=O)c3cc4ccc(N5CC6CCC(C5)N6C)nc4s3)nc(C)c2n1 [Compound 243, N-(2,8-dimethylimidazo[1,2-a]pyrazin-6-yl)-6-(8-methyl-3,8-diazabicyclo[3.2.1]octan-3-yl)thieno[2,3-b]pyridine-2-carboxamide] | < 0.1
20 | Cc1cn2cc(NC(=O)c3cc4ncc(C5CC6CCC(C5)N6)nc4s3)cc(F)c2n1 (stereo not shown) [Compound 142, 3-(8-azabicyclo[3.2.1]octan-3-yl)-N-(8-fluoro-2-methylimidazo[1,2-a]pyridin-6-yl)thieno[2,3-b]pyrazine-6-carboxamide] | 0.1 to 1
21 | COc1cc2nn(C)cc2cc1NC(=O)c1nc2ccc(N3CC[C@H](N4CCC4)C3)nc2s1 [Compound 121, (S)-5-(3-(azetidin-1-yl)pyrrolidin-1-yl)-N-(6-methoxy-2-methyl-2H-indazol-5-yl)thiazolo[5,4-b]pyridine-2-carboxamide] | 0.1 to 1
22 | CN(C)C1CCN(c2ccc3cc(C(=O)Nc4nc5cnccn5n4)sc3n2)C1 (stereo not shown) [Compound 64, N-([1,2,4]triazolo[1,5-a]pyrazin-2-yl)-6-(3-(dimethylamino)pyrrolidin-1-yl)thieno[2,3-b]pyridine-2-carboxamide] | 1 to 9
23 | CN(C)C1CCN(c2ccc3cc(C(=O)Nc4ccc5c(c4)n(C)c(=O)n5C)sc3n2)C1 (stereo not shown) [Compound 58, N-(1,3-dimethyl-2-oxo-2,3-dihydro-1H-benzo[d]imidazol-5-yl)-6-(3-(dimethylamino)pyrrolidin-1-yl)thieno[2,3-b]pyridine-2-carboxamide] | 1 to 9
24 | Cc1cn2cc(NC(=O)c3nc4ccc(N5CCC(N(C)C)C5)nc4s3)ccc2n1 (stereo not shown) [Compound 9, 5-[3-(dimethylamino)pyrrolidin-1-yl]-N-(2-methylimidazo[1,2-a]pyridin-6-yl)thiazolo[5,4-b]pyridine-2-carboxamide] | 1 to 9
25 | Cc1cn2cc(NC(=O)c3cc4ccc(N5CCC(N6CCCC6)C5)nc4s3)ccc2n1 (stereo not shown) [Compound 19, 6-([1,3′-bipyrrolidin]-1′-yl)-N-(2-methylimidazo[1,2-a]pyridin-6-yl)thieno[2,3-b]pyridine-2-carboxamide] | 0.1 to 1
26 | Cc1cn2cc(NC(=O)c3cc4ncc(C5CCNC5)nc4s3)cc(F)c2n1 (stereo not shown) [Compound 146, N-(8-fluoro-2-methylimidazo[1,2-a]pyridin-6-yl)-3-(pyrrolidin-3-yl)thieno[2,3-b]pyrazine-6-carboxamide] | < 0.1
27 | Cc1cn2cc(NC(=O)c3cc4ccc(N5C[C@@H](C)N(CC(F)(F)F)[C@@H](C)C5)nc4s3)ccc2n1 [Compound 33] | 0.1 to 1
28 | Cc1cn2cc(NC(=O)c3nc4ccc(N5CC[C@@H](N(C)C)C5)nc4s3)cc(F)c2n1 [Compound 89, 5-[(3R)-3-(dimethylamino)pyrrolidin-1-yl]-N-(8-fluoro-2-methyl-imidazo[1,2-a]pyridin-6-yl)thiazolo[5,4-b]pyridine-2-carboxamide] | < 0.1
29 | CN(C)[C@@H]1CCN(c2ccc3cc(C(=O)Nc4cc(F)c5nn(C)cc5c4)sc3n2)C1 [Compound 192, (R)-6-(3-(dimethylamino)pyrrolidin-1-yl)-N-(7-fluoro-2-methyl-2H-indazol-5-yl)thieno[2,3-b]pyridine-2-carboxamide] | < 0.1
30 | CCN[C@@H]1CCN(c2ccc3cc(C(=O)Nc4cc(F)c5nc(C)cn5c4)sc3n2)C1 (stereo in doubt) [Compound 68, 6-[(3R)-3-(ethylamino)pyrrolidin-1-yl]-N-(8-fluoro-2-methyl-imidazo[1,2-a]pyridin-6-yl)thieno[2,3-b]pyridine-2-carboxamide] | < 0.1
31 | Cc1cn2cc(NC(=O)c3cc4ncc(C5=CC(N)CCC5)nc4s3)cc(F)c2n1 (racemic) [Compound 145, 3-(3-aminocyclohex-1-en-1-yl)-N-(8-fluoro-2-methylimidazo[1,2-a]pyridin-6-yl)thieno[2,3-b]pyrazine-6-carboxamide] | 0.1 to 1
32 | Cc1cn2cc(NC(=O)c3cc4ccc(N5CCC6NCC65)nc4s3)cc(F)c2n1 (stereo not shown) [Compound 200, 6-(2,6-diazabicyclo[3.2.0]heptan-2-yl)-N-(8-fluoro-2-methylimidazo[1,2-a]pyridin-6-yl)thieno[2,3-b]pyridine-2-carboxamide] | < 0.1
33 | Cc1cn2cc(NC(=O)c3cc4ccc(N5CCC(N6CC7(CC7)C6)C5)nc4s3)cc(F)c2n1 (stereo not shown) [Compound 207, 6-(3-(5-azaspiro[2.3]hexan-5-yl)pyrrolidin-1-yl)-N-(8-fluoro-2-methylimidazo[1,2-a]pyridin-6-yl)thieno[2,3-b]pyridine-2-carboxamide] | < 0.1
34 | COc1c(NC(=O)c2nc3ccc(N4CC[C@H](N(C)C)C4)nc3s2)cn2cc(C)nc2c1F [Compound 91, (S)-5-(3-(dimethylamino)pyrrolidin-1-yl)-N-(8-fluoro-7-methoxy-2-methylimidazo[1,2-a]pyridin-6-yl)thiazolo[5,4-b]pyridine-2-carboxamide] | < 0.1

— US20260035387A1 (BIOGEN MA INC., priority 2022, published 2026)
